Results on 12 molecules are retold here after PubChem BioAssay (NCI).

Some test systems named below: K-562 leukemia; KM12 colon; PC-3 prostate; EKVX NSCLC; 786-0 renal; SK-MEL-5 melanoma; CAKI-1 renal; M14 melanoma; MCF7 breast; ACHN renal.
Common to all, as to test: DTP human tumour cell line panel, 48 h

What is called GI50 is the concentration at which growth is held to half of that of the control. Broadly, the TGI is the concentration giving total growth inhibition. Low values mean more potent growth arrest, high ones less potent growth arrest.

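Assay format: 96-well plates, 48-hour exposure. Here, GI50 denotes the concentration required for 50% inhibition of growth. The concentration for full growth arrest is given as TGI.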

On to `OC(CN1CCCC2CCCCC21)c1cc2ccccc2c2ccccc12` (stereo not given), for which the GI50 is 1.68 µM in the test on K-562 leukemia; 1.87 µM in the test with KM12 colon; 2.27 µM in the test on PC-3 prostate; 1.56 µM in the test on EKVX NSCLC; 1.84 µM in the test on 786-0 renal; 1.67 µM in the test on SK-MEL-5 melanoma. In addition, the GI50 in the test with CAKI-1 renal is 2.36 µM; in the test on M14 melanoma it was 1.52 µM; with MCF7 breast it was 1.84 µM; in the test on ACHN renal, 3 µM. The TGI in the test with K-562 leukemia amounted to 3.39 µM; in the test on KM12 colon it was 4.04 µM; in the test on PC-3 prostate, 10.1 µM; in the test with EKVX NSCLC, 3.54 µM; with 786-0 renal it was 3.6 µM; in the test on SK-MEL-5 melanoma, 3.05 µM. The total growth inhibition concentration (TGI) in the test with CAKI-1 renal came to 8.15 µM; with M14 melanoma, 2.86 µM; in the test on MCF7 breast it was 3.51 µM; in the test on ACHN renal, 10.1 µM.

Regarding `COc1cccc(N2CCN(c3ncnc4cc[nH]c34)CC2)c1`, the GI50 in the test on K-562 leukemia is 1.26 µM; in the test with KM12 colon it was 9.8 µM; in the test on PC-3 prostate, 6.99 µM; in the test on EKVX NSCLC, 0.94 µM; in the test with 786-0 renal it was 29.1 µM; with SK-MEL-5 melanoma, 0.394 µM. The GI50 in the test with CAKI-1 renal is 5.75 µM; in the test with M14 melanoma, 3.76 µM; with MCF7 breast it was 2.65 µM; in the test with ACHN renal it was 19 µM. The total growth inhibition concentration (TGI) in the test on K-562 leukemia was > 100 µM; with KM12 colon, 85 µM; with PC-3 prostate it was > 100 µM; in the test with EKVX NSCLC it was > 100 µM; in the test on 786-0 renal it was > 100 µM; with SK-MEL-5 melanoma, 2.77 µM. Besides, the TGI in the test with CAKI-1 renal was > 100 µM; in the test on M14 melanoma, 26.3 µM; in the test on MCF7 breast it was 47.4 µM; with ACHN renal, > 100 µM.

`CC1=NN(c2cccc(Cl)c2)C(=O)/C1=C\C=C\c1ccccc1`: the GI50 was 2.88 µM with K-562 leukemia; 1.64 µM with KM12 colon; 2.93 µM in the test with PC-3 prostate; 3.04 µM in the test with EKVX NSCLC; 2.16 µM in the test on 786-0 renal; 2.27 µM in the test with SK-MEL-5 melanoma. The GI50 was 1.89 µM in the test with CAKI-1 renal, 1.7 µM in the test with M14 melanoma, 1.12 µM in the test on MCF7 breast and 1.79 µM with ACHN renal. The TGI in the test on K-562 leukemia was > 100 µM; in the test with KM12 colon, 3.1 µM; in the test with PC-3 prostate, > 100 µM; with EKVX NSCLC, > 100 µM; in the test on 786-0 renal it was 4.65 µM; in the test on SK-MEL-5 melanoma, 5.76 µM. For the same molecule, the TGI in the test with CAKI-1 renal came out at 4.49 µM; with M14 melanoma, 3.57 µM; in the test with MCF7 breast it was 18.8 µM; in the test on ACHN renal it was 3.34 µM.

`Cc1ccc(-c2c3c(nn2-c2ccc(S(=O)(=O)NC(=O)NC4CCCCC4)cc2)-c2ccccc2C3)cc1`: the GI50 is 3.1 µM in the test with K-562 leukemia; 13 µM with KM12 colon; 11.1 µM in the test on PC-3 prostate; 11.8 µM in the test on EKVX NSCLC; 2.29 µM with 786-0 renal; 1.33 µM in the test on SK-MEL-5 melanoma. Also, the GI50 in the test on CAKI-1 renal was 18 µM; in the test with M14 melanoma, 14.8 µM; in the test with MCF7 breast it was 5.88 µM; in the test with ACHN renal, 14.6 µM. Further, the concentration for total growth inhibition (TGI) with K-562 leukemia was determined as 13.5 µM; with KM12 colon, 38.2 µM; with PC-3 prostate it was 25.3 µM; in the test with EKVX NSCLC, 25.4 µM; with 786-0 renal, 13.8 µM; with SK-MEL-5 melanoma, 9.39 µM. The concentration for total growth inhibition (TGI) in the test with CAKI-1 renal is 41.8 µM; with M14 melanoma, 30.1 µM; in the test on MCF7 breast, 37.3 µM; with ACHN renal, 29.5 µM.

Regarding `COC(=O)c1c2c(c(C)[n+]([O-])c1C)C(=O)C(NCc1ccc(F)cc1)=CC2=O`, the GI50 was 2.43 µM in the test with K-562 leukemia; 1.66 µM with KM12 colon; 1.79 µM with PC-3 prostate; 1.66 µM in the test with EKVX NSCLC; 2.85 µM in the test with 786-0 renal; 0.3 µM with SK-MEL-5 melanoma. In addition, the GI50 in the test on CAKI-1 renal is 2.06 µM; with M14 melanoma it was 1.21 µM; in the test with MCF7 breast it was 1.11 µM; with ACHN renal, 1.73 µM. Besides, the TGI in the test on K-562 leukemia was > 100 µM; in the test on KM12 colon it was 6.49 µM; in the test on PC-3 prostate, > 100 µM; in the test on EKVX NSCLC, 4.14 µM; in the test on 786-0 renal, 30.1 µM; in the test with SK-MEL-5 melanoma, 1 µM. The TGI with CAKI-1 renal was 6 µM; in the test with M14 melanoma, 2.69 µM; in the test with MCF7 breast, 2.86 µM; in the test with ACHN renal it was 4.04 µM.

Consider `C=C(C)C1CCC2=CC(CC3(C)OC3C3=CC(C(=O)OC)=C(C1)O3)OC2=O` (stereo not given), for which the TGI with K-562 leukemia, in the test on KM12 colon, in the test with PC-3 prostate, in the test with EKVX NSCLC, in the test with 786-0 renal and in the test with SK-MEL-5 melanoma was > 100 µM each time. The TGI in the test on CAKI-1 renal, with M14 melanoma, with MCF7 breast and with ACHN renal was > 100 µM each time.

As to `CC(C)c1[nH]nc2c(NCc3ccc(-c4ccccn4)cc3)nc(SCCN(C)C)nc12`, the concentration for 50% growth inhibition (GI50) is < 0.021 µM with K-562 leukemia; < 0.0159 µM in the test on KM12 colon; 0.0313 µM with PC-3 prostate; 0.0494 µM in the test with EKVX NSCLC; 0.0767 µM in the test on 786-0 renal; 0.153 µM in the test with SK-MEL-5 melanoma. The GI50 in the test on CAKI-1 renal was 0.37 µM; in the test on M14 melanoma it was < 0.0133 µM; in the test on MCF7 breast, < 0.0218 µM; with ACHN renal, 0.0864 µM. In addition, the TGI in the test on K-562 leukemia is 10.3 µM; in the test on KM12 colon it was 6.07 µM; in the test on PC-3 prostate, 3.81 µM; with EKVX NSCLC, 2.54 µM; in the test with 786-0 renal, 6.06 µM; in the test with SK-MEL-5 melanoma it was 0.552 µM. The TGI in the test on CAKI-1 renal is 19.4 µM; in the test with M14 melanoma it was 0.122 µM; in the test with MCF7 breast, 10.5 µM; with ACHN renal, 4.96 µM.

As to `COc1cc2c(NC3CCN(C(C)C)CC3)nc(C3CCCCC3)nc2cc1OCCCN1CCCC1`, the GI50 in the test on K-562 leukemia is 1.99 µM; in the test on KM12 colon, 3.07 µM; in the test on PC-3 prostate, 7.09 µM; in the test on EKVX NSCLC, 8.42 µM; in the test on 786-0 renal, 6.14 µM; in the test with SK-MEL-5 melanoma it was 1.68 µM. Also, the GI50 was 5.01 µM in the test with CAKI-1 renal, 1.71 µM in the test with M14 melanoma, 2.64 µM in the test with MCF7 breast and 10.4 µM in the test with ACHN renal. Also, the total growth inhibition concentration (TGI) with K-562 leukemia worked out at 4.55 µM; in the test on KM12 colon it was 12.6 µM; in the test with PC-3 prostate it was 22.4 µM; in the test with EKVX NSCLC, 21.1 µM; in the test on 786-0 renal it was 17.7 µM; in the test on SK-MEL-5 melanoma it was 3.11 µM. Besides, the total growth inhibition concentration (TGI) stood at 11.2 µM in the test with CAKI-1 renal, 3.26 µM in the test on M14 melanoma, 14.4 µM in the test with MCF7 breast and 23 µM in the test with ACHN renal.

For `COc1c(-c2ccc3c(c2)OCO3)oc2cc(O)cc(O)c2c1=O`, the TGI in the test with K-562 leukemia, in the test with KM12 colon, in the test on PC-3 prostate, in the test with EKVX NSCLC, in the test on 786-0 renal and in the test with SK-MEL-5 melanoma was > 100 µM in each case. Also, the TGI in the test with CAKI-1 renal is 86.4 µM; in the test with M14 melanoma, > 100 µM; with MCF7 breast, 75.3 µM; with ACHN renal, > 100 µM.

For the molecule `C=C1C(=O)O[C@@H]2CC(CO)=C([C@@H](C)CCCO)[C@@H](OC(=O)/C(C)=C\C)[C@H]12`, the total growth inhibition concentration (TGI) in the test on K-562 leukemia is 31.2 µM; in the test on KM12 colon, 43.7 µM; in the test on PC-3 prostate, 45.7 µM; with EKVX NSCLC, 48.2 µM; in the test with 786-0 renal, 52.1 µM; in the test on SK-MEL-5 melanoma, 34.6 µM. The TGI was 63.4 µM in the test on CAKI-1 renal, > 81.4 µM with M14 melanoma, 23.4 µM in the test on MCF7 breast and 39.8 µM in the test on ACHN renal.

On to `c1cc(C2CCCCC2)ccc1-c1cnc2nonc2n1`, for which the GI50 is 0.4 µM in the test with K-562 leukemia; 0.973 µM in the test on KM12 colon; 0.789 µM in the test on PC-3 prostate; 1.52 µM with EKVX NSCLC; 0.506 µM with 786-0 renal; 1.29 µM in the test on SK-MEL-5 melanoma. Moreover, the GI50 in the test with CAKI-1 renal is 1.08 µM; with M14 melanoma it was 0.499 µM; in the test with MCF7 breast it was 0.393 µM; in the test with ACHN renal, 1.14 µM. The TGI is 18.8 µM in the test with K-562 leukemia; 3.65 µM with KM12 colon; 2.56 µM with PC-3 prostate; 3.65 µM in the test on EKVX NSCLC; 1.9 µM with 786-0 renal; 2.62 µM in the test on SK-MEL-5 melanoma. For the same molecule, the concentration for total growth inhibition (TGI) in the test on CAKI-1 renal came out at 3.18 µM; with M14 melanoma it was 2.16 µM; in the test with MCF7 breast it was 3.21 µM; with ACHN renal, 2.39 µM.

Turning to `Cc1nc2sc(C(=O)Nc3ccccc3)c(N)c2cc1C(O)c1ccccc1` (stereo not given), the concentration for 50% growth inhibition (GI50) with K-562 leukemia was 0.0933 µM; with KM12 colon, 0.344 µM; with PC-3 prostate it was 0.427 µM; in the test with EKVX NSCLC, 0.597 µM; in the test with 786-0 renal, 0.553 µM; in the test with SK-MEL-5 melanoma, 0.338 µM. Besides, the concentration for 50% growth inhibition (GI50) is 0.243 µM in the test with CAKI-1 renal, 0.182 µM in the test with M14 melanoma, 0.091 µM in the test on MCF7 breast and 0.512 µM with ACHN renal. The TGI is > 59.2 µM with K-562 leukemia; > 44 µM in the test on KM12 colon; > 71 µM in the test on PC-3 prostate; > 100 µM in the test with EKVX NSCLC; 20 µM with 786-0 renal; 1.63 µM in the test on SK-MEL-5 melanoma. Besides, the TGI is > 100 µM in the test with CAKI-1 renal, 15.2 µM in the test on M14 melanoma, 19.1 µM with MCF7 breast and > 60.8 µM in the test on ACHN renal.
